{"source": "paper PMC12176268", "about": "“Structural Features and Photophysical and Antiproliferative Properties of Me2N‑pbt-Cycloplatinated Complexes with Picolinate Ligands” (Inorganic Chemistry, 2025)", "key": {"MDA-MB-231 cells": {"test_system": "MDA-MB-231 cells", "experiment": "Intracellular ROS production with H2DCFDA probe", "format": "cell-based, human", "procedure": "Cyclometalated complexes of various metals, including Ir(III), Rh(III), Pt(II), and Au(III), have been reported to induce overproduction of reactive oxygen species (ROS), inducing oxidative stress leading to cell death. […] Following the protocol used for cytotoxicity assays, cells were incubated with 3 for 4 h in the dark at 37 °C (dark conditions) or incubated with 3 for 4 h in the dark at 37 °C, followed by 5 min of irradiation at 450 nm (irradiation conditions). ROS production was measured using the nonspecific ROS probe 2′,7′-dichlorodihydrofluorescein diacetate (H2DCFDA) (Figures and S36).\n11 ROS production upon incubation of MDA-MB-231 cells for 4 h at 37 °C (dark) or for 4 h at 37 °C + 5 min irradiation at 450 nm (irradiation) with complex 3 (5, 2, 1, or 0.5 μM), expressed as the mean fluorescence intensity normalized to DMSO negative controls. […]\nTriple-negative breast cancer cells MDA-MB-231 were seeded in 6-well plates at a concentration of 150 000 cells/well in 1.5 mL DMEM (Dulbecco’s modified Eagle’s medium) containing GlutaMax I supplemented with 10% FBS. […] Microscopy images were recorded in brightfield and GFP filter modes using an EVOS M5000 microscope with a 10× objective. Cell confluency was assessed on the brightfield images using EVOS M5000 microscope software, and quantification of green fluorescence was performed using Fiji software. […]"}, "[1]": {"experiment": "Singlet oxygen generation, NIR emission at 1274 nm versus phenalenone", "format": "physicochemical", "details": "aerated acetonitrile 5 × 10^–5 M, 298 K, excitation 365 nm, reference phenalenone", "procedure": "In aerated DMSO solutions, complexes 1–3 display a fluorescence band only at ca 510 nm, attributed to ^1LL′CT/^1ILCT, due to easy quenching of the phosphorescence by oxygen. However, upon prolonged photoexcitation at 365 nm, a continuous enhancement of the phosphorescence band is observed. Simply irradiating with a hand UV–vis lamp, the initial blue-green emission gradually shifts to the orange enhanced emission. The phosphorescence increases its maximum intensity in ca 15 1, 8 2, or 12 min 3 (Figures and S23). […] This relatively rare behavior has been previously observed by us , and other groups, and is explained by the occurrence of a local sensitization caused by energy transfer from the low-energy triplet to ^3O2-producing singlet ^1O2, which is able to selectively react with the solvent creating a free oxygen microenvironment that switches-on a phosphorescence band due to ^3ILCT at 580 nm. The strong sensitivity of the phosphorescence emission in these complexes encourages us to determine their efficiency as ^1O2 sensitizers. The singlet oxygen generation of complexes 1–3 was examined in acetonitrile solution (5 × 10^–5 M) using a near-infrared detector upon excitation at 365 nm, detecting the characteristic emission profile of ^1O2 at λem ∼ 1274 nm (Figure )."}}}
{"substance": "[Pt(Me2N-pbt)(3-OH-pic-κN,O)] [Complex 3]", "values": [{"measurement": "ROS production (H2DCFDA green fluorescence), dark", "setting": "MDA-MB-231 cells; MDA-MB-231, 0.5, 1, 2 or 5 μM, 4 h at 37 °C in the dark", "value": "dose-dependent increase of green fluorescence"}, {"measurement": "ROS production (H2DCFDA green fluorescence), irradiation versus dark", "setting": "MDA-MB-231 cells; MDA-MB-231, 4 h at 37 °C + 5 min irradiation at 450 nm", "value": "statistically significant increase of ROS production"}, {"measurement": "quantum yield (ϕΔ) of 1O2", "setting": "[1]", "value": 16.2, "unit": "%"}]}
